What was measured:
[1] = continuous oral dosing, cited from earlier work
[2] = system: CD44 shedding in IS-CD8+ cells; experiment: CD44 shedding in adherent IS-CD8+ cells, Western blotting; format: cell-based, NOD mouse
Method: Western Blotting—IS-CD8^+ cells were surface biotinylated for 1 h at 4° C. with 0.1 mg/ml sulfo-NHS-LC-biotin (Pierce, Rockford, Ill.). Following washes to remove biotin, cells were co-incubated for 2 h with MT1-MMP-CAT in serum-free, unsupplemented Click's medium. The cells were then lysed with 50 mM N-octyl-β-D-glucopyranoside in phosphate-buffered saline supplemented with 1 mM CaCl2, 1 mM MgCl2, and protease inhibitor mixture containing phenylmethylsulfonyl fluoride (1 mM) and aprotinin, pepstatin, and leupeptin (1 μg/ml each). Biotin-labeled CD44 was captured from the cell lysate and from the medium aliquots on streptavidin-agarose beads. The captured samples were examined by Western blotting with the CD44 (clone IM7.8.1) antibody to determine the released, soluble, CD44 ectodomain in the medium samples and the residual, membrane-anchored, cellular CD44 in the cell lysates.
Western blotting—IS-CD8^+ cells were surface biotinylated for 1 hr at 4° C. with 0.1 mg/ml of sulfo-NES-LC-biotin (Pierce). Following washes to remove biotin, the labeled cells were allowed to adhere in serum-free medium to plastic coated with 2% type I collagen/gelatin for 4 h or were kept in suspension. Under these experimental conditions, the vast majority of the cells became attached to gelatin. […] The cells were then lysed with 50 mM N-octyl-β-D-glucopyranoside in PBS supplemented with 1 mM CaCl2, 1 mM MgCl2, and protease inhibitor cocktail containing phenylmethylsulfonyl fluoride (1 mM) and aprotinin, pepstatin, and leupeptin (1 μg/ml each). Biotin-labeled CD44 was captured from the cell lysate and from the medium aliquots on streptavidine-Agarose beads. The captured samples were examined by Western blotting with the CD44 (clone IM7.8.1) antibody to determine the released, soluble, CD44 ectodomain in the medium samples and the residual, membrane-anchored, cellular CD44 in the cell lysates.

MT1-MMP = biological target: T1, MT1-MMP (Mus musculus, UniProt P53690); experiment: MT1-MMP-dependent MMP-2 activation in adherent IS-CD8+ cells, gelatin zymography; format: cell-based, NOD mouse
T1 construct: Endogenous MT1-MMP is latent in non-adherent IS-CD8^+ cells; endogenous in cells; host or cells: IS-CD8+ T cells (TGNFC8 clone, NOD mouse), adherent to gelatin
Method: MT1-MMP-dependent MMP-2 Activation and Gelatin Zymography—IS-CD8^+ cells (1×10^6) were either allowed to adhere for 4 h in serum-free unsupplemented Click's medium to plastic coated with 2% gelatin or kept in solution. Under these experimental conditions, the vast majority of cells became attached to gelatin. In 4 h, media samples (30 μl each) were withdrawn and analyzed by gelatin zymography (Deryugina, E. I., et al. (2001)) to identify the proteolytic activity and the activation status of MMP-2 naturally synthesized by IS-CD8^+ cells. Where indicated, cells were supplemented with external purified pro-MMP-2 (20 ng). Pro-MMP-2 was isolated from a conditioned medium of p2AHT2A72 cells derived from an HT1080 fibrosarcoma cell line sequentially transfected with the E1A and MMP-2 cDNAs (Strongin, A. Y., et al. (1995)).
MT1-MMP-dependent MMP-2 activation and gelatin zymography—IS-CD8^+ cells (1×10^6) were either allowed to adhere for 4 h in serum-free unsupplemented Click's medium to the plastic coated with 2% gelatin or kept in solution. In 18 h, media samples (30 μl each) were withdrawn and analyzed by gelatin zymography (Deryugina, E. I., et al. (2001)) to identify the proteolytic activity and the activation status of MMP-2 naturally synthesized by IS-CD8^+ cells. […] Pro-MMP-2 was isolated from a conditioned medium of p2AHT2A72 cells derived from an HT1080 fibrosarcoma cell line sequentially transfected with the E1A and MMP-2 cDNAs (Strongin, A. Y., et al. (1995)).

CC1(C)SCCN(S(=O)(=O)c2ccc(Oc3ccncc3)cc2)[C@H]1C(=O)NO [AG3340]
dose inducing musculoskeletal effects that required dose discontinuation in more than half of the subjects ([1]; 2 to 100 mg/day in two doses per day): above 25 mg/day | severe dose-limiting toxicity ([1]; 2 to 100 mg/day): did not result in severe dose-limiting toxicity | shedding of CD44 in adherent cells ([2]; Example 2: AG3340 50 μM, TIMP-1 and TIMP-2 100 ng/ml): fully blocked | shedding of CD44 in adherent cells ([2]; Example 3): fully blocked | activation of MMP-2 in adherent cells (MT1-MMP; Example 2: AG3340 50 μM, TIMP-1 and TIMP-2 100 ng/ml, 18 h): fully blocked | activation of MMP-2 in adherent cells (MT1-MMP; Example 3: inhibitors added for 18 h): fully blocked
